Source: patent US10668048B2, “Compounds for inhibiting bacterial growth via phosphatidylglycerol binding” (Wichita State University, priority 2016, dated 2020)

Key:
[1] = test system: Escherichia coli str. MC4100; test: Long term growth study in brain-heart infusion medium; assay type: cell-based
Description: (§1) Staphylococcus aureus str. ATCC 29213 was grown as shake-tubes in brain-heart infusion medium supplemented with liptin and culture densities were measured by turbidity (FIG. 13A). At 0.5 μM 3e, there was an 8-h lag phase before culture density began to increase, which was not seen without addition of liptin 3e. Further, the growth rate was substantially lower over the next 12 h as culture density approached that of controls. Lag phases were on the order of days to weeks at liptin concentrations of ≥1.5 μM, and slow recovery followed. […] Growth of Escherichia coli str. […] Our novel antibacterial compounds attack plasma membranes through a less specific mode of action, which may avoid the pitfalls that lead to antibiotic resistance.

[2] = test system: Staphylococcus aureus str. ATCC 29213; test: as above; assay type: cell-based
Description: as §1

[3] = Liptin-PG binding in solution (ITC and/or 1H NMR titration); conditions: ITC; 50% DMSO, 45% CHCl3, 5% CH3OH
Description: The lipid binding ability of liptins 1-3 (FIG. 2A) have been investigated in solution using isothermal titration calorimetry (ITC) and/or ^1H NMR. Stoichiometry of binding was accomplished with Job plots using ^1H NMR. […] The use of organic solvents allowed the determination of binding motif using ^1H NMR.
Liptins 1b, 1e, 2c, 2d, 3a, 3c in DMF/5% CHCl3; 3e in 50% DMSO, 45% CHCl3, 5% CH3OH.
Liptins 1h and 1i 40% DMSO, 60% CHCl3, 3f in 20% DMSO, 80% CHCl3.

[4] = FCS binding of liptin to PG at the membrane interface (liposomes, surfactant vesicles)
Description: The porphyrin 3e was used to examine the liptin's affinity and selectivity for PG when PG was present as part of a membrane bilayer. In this example, fluorescence correlation spectroscopy (FCS) was used to measure the fraction of liptin bound to surfactant vesicles or liposomes containing a known amount of PG. This approach is fast, reliable and accurate, and is possible when the liptin is a stable fluorophore, as in the case of 3e.
FCS results are evaluated by treating the time dependent fluorescence intensity acquired from a dilute solution of the liptin using a focused laser beam as the excitation source. Temporal fluctuations in the fluorescence intensity are a result of the diffusion of the liptin through the focused laser beam. When the liptin binds to a vesicle, its apparent diffusion coefficient decreases by two orders of magnitude.
FIG. panels 9A and 9C contain examples of autocorrelation decays for liptin 3e in with liposomes (FIG. 9A) and surfactant vesicles (FIG. 9C) containing varying amounts of PG. Specifically, FIG. 9 illustrates an autocorrelation analysis of liptin 3e binding to PG-doped membranes of liposomes and positively-charged surfactant vesicles. A) Autocorrelation decays for liptin with varying percentages of PG in PE liposome. B) Binding constant values as a function of PS and PG in PE liposome. C) Autocorrelation decays for liptin with varying percentages of PG in positively-charged surfactant vesicles. D) Binding constant of liptin with varying percentages of PG in positively-charged surfactant vesicles. […] In FIGS. 9A and 9C, the markers are the experimental data and the solid lines are the fits that determine the fraction of liptin bound, f. This quantity is then used to calculate the binding constant:
[formula] where [R] is the total concentration of […], and it has been assumed that half of the PG is located on the membrane inner leaflet and thus not available for binding.

[5] = test system: Gram-positive, Gram-negative, and Mycobacteria; test: Growth curves in BHI culture with liptin 3e; assay type: cell-based
Description: Growth curves were generated from liquid shake-flask cultures using absorbance measurements at 600 nm at different concentrations of liptin 3e. Uninoculated control flasks were used as blanks. Absorbance values of 0.1 OD unit was considered reasonable threshold for positive growth. […] Liptin exposure appears to stop bacterial growth, as evidenced by long lag phases, which increase with liptin concentration. In most cases, cultures recover, but growth rates and maximum cell densities are decreased with liptin treatment.
Bacterial growth rates were reduced by liptin 3e treatment in a concentration-dependent manner. Rates were determined as the slope of the log phase of the growth curve, after the lag phase. An exponential relationship exists with marginally significant differences (p<0.1).
Maximum culture densities represent the carrying capacity of a culture flask.

[6] = test system: S. aureus plasma membrane; test: Plasma membrane depolarization, DiS-C2(5) fluorescence; assay type: cell-based; conditions: 0.69-2.6 μM added at 90 s
Description: The graph in FIGS. 15A-15C represents the depolarization of S. aureus plasma membrane measured by an increase in the fluorescence of 3,3-diethylthiodicabodyanine iodide. The dye, which has direct access to the Gram-positive plasma membrane, becomes highly fluorescent in membranes where polarization is lost. […] The membrane effects were measured against the known membrane-disruptive agent, cationic steroid antimicrobial-25 (CSA-25), one of a group of cholic acid-derived antimicrobial also known as ceragenins. This assay measured the effects of the Ammonium-picket porphyrin alone those of CSA-25 alone or a combination of Ammonium-picket porphyrin and CSA-25.
Bacterial cultures were grown overnight in TSB at 37° C. Cells were harvested by centrifugation and washed in a buffer containing 250 mM sucrose, 5 mM MgSO4, and 10 mM potassium phosphate (pH 7.0). After three washings, pellets were re-suspended in the same buffer. […] Fluorescence measurements were taken at 30-s intervals before and after addition of ceragenins. FIG. 15A illustrates the depolarization of S. aureus measured by an increase in fluorescence of 3,3′ diethylthiodicarbodyanine iodide (DiS-C2(5)). […]
FIG. 15B illustrates the depolarization of S. aureus measured by an increase in fluorescence of 3,3′ diethylthiodicarbodyanine iodide. […]

[7] = test system: E. coli BL 21 (Tuner pLysS); test: Tetracycline-induced YqhD expression, gel electrophoresis; assay type: cell-based; conditions: 10 μM
[8] = E. coli and S. aureus, concentration-dependent

NCC(=O)Nc1ccccc1-c1c2nc(c(-c3ccccc3NC(=O)CN)c3ccc([nH]3)c(-c3ccccc3NC(=O)CN)c3nc(c(-c4ccccc4NC(=O)CN)c4ccc1[nH]4)C=C3)C=C2.O=C(O)C(F)(F)F.O=C(O)C(F)(F)F.O=C(O)C(F)(F)F.O=C(O)C(F)(F)F [Liptin 3e]
lag phases ([1]; 1.5 μM): 8 h
lag phases ([1]; 10 μM): greater than 24 h
lag phase ([2]; 0.5 μM): 8 h
lag phases ([2]; ≥1.5 μM): days to weeks
Ka [3]: 2800 M⁻¹
PG binding affinities at the membrane interface ([4]; FCS): ~10^4 M^−1
Ka ([4]; Lipid vesicles containing 10-30% PG): 10^4
selectivity of binding PG vs phosphatidylserine (PS) ([4]; lipid vesicles of binary mixtures of PG or PS with PE): selective for PG over the PS
binding to surfactant vesicle without PG ([4]; no PG, only anionic component sodium dodecylbenzenesulfonate (SDBS)): Negligible binding
binding constant ([4]; surfactant vesicle with 1% of PG and 35% SDBS): 47000 M⁻¹
bacterial growth rates [5, 8]: reduces bacterial growth rates
maximum culture density [5, 8]: decreases maximum culture density
antibacterial activity from growth curves ([5]; one inoculation, BHI): highly bacteriostatic activity
depolarization: fluorescence of 3,3-diethylthiodicabodyanine iodide [6]: increased in a concentration-dependent manner
protein synthesis [7]: most protein synthesis was effectively disrupted
